pEC50: −log10 of the molar value.

A short description of the assay: Inhibition of glucocorticoid-mediated human MMP1 expression in PMA stimulated A549 cells assessed as MMP1 protein level by ELISA.
Turning to `C[C@H]1C[C@H]2[C@@H]3CCC4=CC(=O)C=C[C@]4(C)[C@@]3(F)[C@@H](O)C[C@]2(C)[C@@]1(OC(=O)NC(C)(C)CC(C)(C)C)C(=O)CO` [(8S,9R,10S,11S,13S,14S,16S,17R)-9-fluoro-11-hydroxy-17-(2-hydroxyacetyl)-10,13,16-trimethyl-3-oxo-6,7,8,9,10,11,12,13,14,15,16,17-dodecahydro-3H-cyclopenta[a]phenanthren-17-yl 2,4,4-trimethylpentan-2-ylcarbamate], the negative-log EC50 (pEC50) is 7.63. The figure for `C[C@H]1C[C@H]2[C@@H]3CCC4=CC(=O)C=C[C@]4(C)[C@@]3(F)[C@@H](O)C[C@]2(C)[C@@]1(OC(=O)NCCC(C)(C)C)C(=O)CO` [(8S,9R,10S,11S,13S,14S,16S,17R)-9-fluoro-11-hydroxy-17-(2-hydroxyacetyl)-10,13,16-trimethyl-3-oxo-6,7,8,9,10,11,12,13,14,15,16,17-dodecahydro-3H-cyclopenta[a]phenanthren-17-yl 3,3-dimethylbutylcarbamate] is 7.68; for `C[C@H]1C[C@H]2[C@@H]3CCC4=CC(=O)C=C[C@]4(C)[C@@]3(F)[C@@H](O)C[C@]2(C)[C@@]1(OC(=O)NC1CCCCC1)C(=O)CO` [(8S,9R,10S,11S,13S,14S,16S,17R)-9-fluoro-11-hydroxy-17-(2-hydroxyacetyl)-10,13,16-trimethyl-3-oxo-6,7,8,9,10,11,12,13,14,15,16,17-dodecahydro-3H-cyclopenta[a]phenanthren-17-yl cyclohexylcarbamate] it is 8.89.

As to `C[C@H]1C[C@H]2[C@@H]3CCC4=CC(=O)C=C[C@]4(C)[C@@]3(F)[C@@H](O)C[C@]2(C)[C@@]1(OC(=O)NCC(C)(C)C)C(=O)CO` [(8S,9R,10S,11S,13S,14S,16S,17R)-9-fluoro-11-hydroxy-17-(2-hydroxyacetyl)-10,13,16-trimethyl-3-oxo-6,7,8,9,10,11,12,13,14,15,16,17-dodecahydro-3H-cyclopenta[a]phenanthren-17-yl neopentylcarbamate], the pEC50 was 10.00. With `CCCCCNC(=O)O[C@]1(C(=O)CO)[C@@H](C)C[C@H]2[C@@H]3CCC4=CC(=O)C=C[C@]4(C)[C@@]3(F)[C@@H](O)C[C@@]21C` [(8S,9R,10S,11S,13S,14S,16S,17R)-9-fluoro-11-hydroxy-17-(2-hydroxyacetyl)-10,13,16-trimethyl-3-oxo-6,7,8,9,10,11,12,13,14,15,16,17-dodecahydro-3H-cyclopenta[a]phenanthren-17-yl pentylcarbamate] the figure was 7.74; with `CCC(C)NC(=O)O[C@]1(C(=O)CO)[C@@H](C)C[C@H]2[C@@H]3CCC4=CC(=O)C=C[C@]4(C)[C@@]3(F)[C@@H](O)C[C@@]21C` (stereo partly drawn) [(8S,9R,10S,11S,13S,14S,16S,17R)-9-fluoro-11-hydroxy-17-(2-hydroxyacetyl)-10,13,16-trimethyl-3-oxo-6,7,8,9,10,11,12,13,14,15,16,17-dodecahydro-3H-cyclopenta[a]phenanthren-17-yl sec-butylcarbamate], 9.10; with `CCC(C)(C)NC(=O)O[C@]1(C(=O)CO)[C@@H](C)C[C@H]2[C@@H]3CCC4=CC(=O)C=C[C@]4(C)[C@@]3(F)[C@@H](O)C[C@@]21C` [(8S,9R,10S,11S,13S,14S,16S,17R)-9-fluoro-11-hydroxy-17-(2-hydroxyacetyl)-10,13,16-trimethyl-3-oxo-6,7,8,9,10,11,12,13,14,15,16,17-dodecahydro-3H-cyclopenta[a]phenanthren-17-yl tert-pentylcarbamate], 7.27.

On to `COC(=O)[C@H](C)NC(=O)O[C@]1(C(=O)CO)[C@@H](C)C[C@H]2[C@@H]3CCC4=CC(=O)C=C[C@]4(C)[C@@]3(F)[C@@H](O)C[C@@]21C` [(11beta,16beta)-9-Fluoro-11,21-dihydroxy-16-methyl-3,20-dioxopregna-1,4-dien-17-yl (1S)-1-(methoxycarbonyl)-ethylcarbamate], for which the negative logarithm of the EC50 (pEC50) is 7.08. In the case of `C[C@H](NC(=O)O[C@]1(C(=O)CO)[C@@H](C)C[C@H]2[C@@H]3CCC4=CC(=O)C=C[C@]4(C)[C@@]3(F)[C@@H](O)C[C@@]21C)c1ccccc1` [(11beta,16beta)-9-Fluoro-11,21-dihydroxy-16-methyl-3,20-dioxopregna-1,4-dien-17-yl (1S)-1-phenylethylcarbamate], the pEC50 was 8.31. The figure for `C=CCNC(=O)O[C@]1(C(=O)CO)[C@@H](C)C[C@H]2[C@@H]3CCC4=CC(=O)C=C[C@]4(C)[C@@]3(F)[C@@H](O)C[C@@]21C` [(11beta,16beta)-9-Fluoro-11,21-dihydroxy-16-methyl-3,20-dioxopregna-1,4-dien-17-yl allylcarbamate] is 7.41; for `CCCCNC(=O)O[C@]1(C(=O)CO)[C@@H](C)C[C@H]2[C@@H]3CCC4=CC(=O)C=C[C@]4(C)[C@@]3(F)[C@@H](O)C[C@@]21C` [(11beta,16beta)-9-Fluoro-11,21-dihydroxy-16-methyl-3,20-dioxopregna-1,4-dien-17-yl butylcarbamate] it is 7.66; for `C[C@H]1C[C@H]2[C@@H]3CCC4=CC(=O)C=C[C@]4(C)[C@@]3(F)[C@@H](O)C[C@]2(C)[C@@]1(OC(=O)NC1CCCC1)C(=O)CO` [(11beta,16beta)-9-Fluoro-11,21-dihydroxy-16-methyl-3,20-dioxopregna-1,4-dien-17-yl cyclopentylcarbamate] it is 8.55. With `CCNC(=O)O[C@]1(C(=O)CO)[C@@H](C)C[C@H]2[C@@H]3CCC4=CC(=O)C=C[C@]4(C)[C@@]3(F)[C@@H](O)C[C@@]21C` [(11beta,16beta)-9-Fluoro-11,21-dihydroxy-16-methyl-3,20-dioxopregna-1,4-dien-17-yl ethylcarbamate] the figure was 7.80; with `CC(C)NC(=O)O[C@]1(C(=O)CO)[C@@H](C)C[C@H]2[C@@H]3CCC4=CC(=O)C=C[C@]4(C)[C@@]3(F)[C@@H](O)C[C@@]21C` [(11beta,16beta)-9-Fluoro-11,21-dihydroxy-16-methyl-3,20-dioxopregna-1,4-dien-17-yl isopropylcarbamate], 8.72. As for `CCCNC(=O)O[C@]1(C(=O)CO)[C@@H](C)C[C@H]2[C@@H]3CCC4=CC(=O)C=C[C@]4(C)[C@@]3(F)[C@@H](O)C[C@@]21C` [(11beta,16beta)-9-Fluoro-11,21-dihydroxy-16-methyl-3,20-dioxopregna-1,4-dien-17-yl propylcarbamate], the pEC50 was 7.73. `C[C@H]1C[C@H]2[C@@H]3CCC4=CC(=O)C=C[C@]4(C)[C@@]3(F)[C@@H](O)C[C@]2(C)[C@@]1(OC(=O)NC(C)(C)C)C(=O)CO` [(11beta,16beta)-9-Fluoro-11,21-dihydroxy-16-methyl-3,20-dioxopregna-1,4-dien-17-yl tert-butylcarbamate]: the negative logarithm of the EC50 (pEC50) is 8.80. The figure for `C[C@H]1C[C@H]2[C@@H]3CCC4=CC(=O)C=C[C@]4(C)[C@@]3(F)[C@@H](O)C[C@]2(C)[C@@]1(OC(=O)NC12CC3CC(CC(C3)C1)C2)C(=O)CO` [Adamantan-1-yl-carbamic acid (8S,9R,10S,11S,13S,14S,16S,17R)-9-fluoro-11-hydroxy-17-(2-hydroxy-acetyl)-10,13,16-trimethyl-3-oxo-6,7,8,9,10,11,12,13,14,15,16,17-dodecahydro-3H-cyclopenta[a]phenanthren-17-yl este] is 8.47.

(Values after BindingDB's records for doi:10.1016/j.bmc.2008.07.037 (Merck Research Laboratories, 2008).)
